Experimental data: US11485731B2, “Compounds and methods useful in the treatment of a PRMT5-mediated disorder” (ARGONAUT THERAPEUTICS LIMITED, priority 2017, dated 2022)

Target: human PRMT5/MEP50 (Homo sapiens (Human), UniProt O14744)
Test: PRMT5 chemiluminescent assay
Assay type: biochemical
Conditions: human PRMT5/MEP50 expressed in HEK293 cells; biotinylated histone peptides; Histone H4 monomethyl R3 antibody; chemiluminescent readout
Method: A PRMT5 chemiluminescent assay was used to measure the IC50 activity of PRMT5 of the compounds of Examples 1A to 7 above. Biotinylated histone peptides were synthesized and attached to 384-well plates. Compound serial dilutions were performed and added to the assay plate. Histone H4 monomethyl R3 antibody was obtained from Abcam. A master mix for each well was prepared and human PRMT5/MEP50 (expressed in HEK293 cells) diluted in assay buffer to a concentration of 5 ng/μL. The reaction was incubated and slowly rotated for 60 minutes at the point of PRMT5/MEP50 addition. The supernatant from the wells was removed and blocking buffer was added to each well and rotated for 10 minutes. The primary antibody was diluted and added to every well for 60 minutes, before it was removed and the wells washed. The horse raddish peroxidase (HRP)-coupled secondary antibody was diluted and added to each well with an incubation time of 30 minutes. The HRP chemiluminescent substrate was added to every well. The plate was read on a Flourstar Omega BMG Labtech instrument (Ortenberg, Germany) and the analysis of IC50 was performed using the Flourstar Omega BMG Labtech software.

Sequence of human PRMT5/MEP50 (O14744 whole entry): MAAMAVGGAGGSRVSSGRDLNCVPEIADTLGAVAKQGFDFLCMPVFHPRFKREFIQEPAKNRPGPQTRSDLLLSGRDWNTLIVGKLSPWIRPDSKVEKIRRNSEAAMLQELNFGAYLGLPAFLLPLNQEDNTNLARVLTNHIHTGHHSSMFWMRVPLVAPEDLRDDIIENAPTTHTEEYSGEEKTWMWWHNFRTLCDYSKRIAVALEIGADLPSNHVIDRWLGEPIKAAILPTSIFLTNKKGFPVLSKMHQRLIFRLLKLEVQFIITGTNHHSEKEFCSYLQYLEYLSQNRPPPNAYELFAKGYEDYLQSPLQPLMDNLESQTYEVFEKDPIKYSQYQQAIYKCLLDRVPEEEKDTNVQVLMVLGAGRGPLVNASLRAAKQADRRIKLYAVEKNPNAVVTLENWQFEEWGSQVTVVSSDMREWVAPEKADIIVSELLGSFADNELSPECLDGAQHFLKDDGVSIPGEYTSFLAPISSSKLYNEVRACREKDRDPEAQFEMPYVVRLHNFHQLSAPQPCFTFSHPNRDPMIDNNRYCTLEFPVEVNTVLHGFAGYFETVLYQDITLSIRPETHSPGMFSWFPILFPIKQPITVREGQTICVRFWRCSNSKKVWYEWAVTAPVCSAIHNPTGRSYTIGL
Sequence of human PRMT5/MEP50 (Q9BQA1 whole entry partner): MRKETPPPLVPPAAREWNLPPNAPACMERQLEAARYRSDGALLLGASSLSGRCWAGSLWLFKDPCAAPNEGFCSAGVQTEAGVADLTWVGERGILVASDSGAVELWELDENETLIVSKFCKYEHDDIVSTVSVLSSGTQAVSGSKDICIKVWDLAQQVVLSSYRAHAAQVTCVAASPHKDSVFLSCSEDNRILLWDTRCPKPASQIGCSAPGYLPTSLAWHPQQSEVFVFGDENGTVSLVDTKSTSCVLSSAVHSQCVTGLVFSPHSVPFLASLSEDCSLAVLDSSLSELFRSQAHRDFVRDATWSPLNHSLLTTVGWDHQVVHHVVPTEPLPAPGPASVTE

Row | SMILES | IC50
1 | O=C(NC[C@H](O)CN1CCc2ccccc2C1)N1CC[C@H](c2ccccc2)C1 [Example 1CJ, (R)-N-((S)-3-(3,4-dihydroisoquinolin-2(1H)-yl)-2-hydroxypropyl)-3-phenylpyrrolidine-1-carboxamide] | 58 nM
2 | O=C(NC[C@H](O)CN1CCc2ccccc2C1)N1CCC(C(=O)N2C3CCC2COC3)CC1 [Example 1AZ, 4-(3-oxa-8-azabicyclo[3.2.1]octane-8-carbonyl)-N-((S)-3-(3,4-dihydroisoquinolin-2(1H)-yl)-2-hydroxypropyl)piperidine-1-carboxamide] | 159 nM
3 | O=C(NC[C@H](O)CN1CCc2ccccc2C1)N1CCCN(C(=O)c2ccccc2)CC1 [Example 1AR, (S)-4-benzoyl-N-(3-(3,4-dihydroisoquinolin-2(1H)-yl)-2-hydroxypropyl)-1,4-diazepane-1-carboxamide] | 658 nM
4 | O=C(NCC(O)CN1CCc2ccccc2C1)N1CCC(C(=O)N2C3CCC2COC3)CC1 (centres unmarked) [Example 1R, 4-(3-oxa-8-azabicyclo[3.2.1]octane-8-carbonyl)-N-(3-(3,4-dihydroisoquinolin-2(1H)-yl)-2-hydroxypropyl)piperidine-1-carboxamide] | 11 nM
5 | O=C(NC[C@H](O)CN1CCc2ccccc2C1)N1CCc2ccccc2C1 [Example 1AL, (S)-N-(3-(3,4-dihydroisoquinolin-2(1H)-yl)-2-hydroxypropyl)-3,4-dihydroisoquinoline-2(1H)-carboxamide] | 30 nM
6 | O=C(NCC(O)CN1CCc2ccccc2C1)N1CCc2ccccc21 (centres unmarked) [Example 2B, N-[2-hydroxy-3-(1,2,3,4-tetrahydroisoquinolin-2-yl)propyl]-2,3-dihydro-1H-indole-1-carboxamide] | 8500 nM
7 | O=C(NC[C@H](O)CN1CCc2ccccc2C1)N1CCCC(N2CCN(Cc3ccccc3)CC2)C1 (stereo partly drawn) [Example 1CH, 3-(4-benzylpiperazin-1-yl)-N-((S)-3-(3,4-dihydroisoquinolin-2(1H)-yl)-2-hydroxypropyl)piperidine-1-carboxamide] | 1920 nM
8 | O=C(NC[C@H](O)CN1CCc2ccccc2C1)N1CCC[C@H](c2ccccn2)C1 (single isomer, unassigned) [Example 5F, (S)-N-((S)-3-(3,4-dihydroisoquinolin-2(1H)-yl)-2-hydroxypropyl)-3-(pyridin-2-yl)piperidine-1-carboxamide or (R)-N-((S)-3-(3,4-dihydroisoquinolin-2(1H)-yl)-2-hydroxypropyl)-3-(pyridin-2-yl)piperidine-1-carboxamide] | 97 nM
9 | O=C(NC[C@H](O)CN1CCc2ccccc2C1)N1CCC(N2CCOCC2)C1 (stereo partly drawn) [Example 1CD, N-((S)-3-(3,4-dihydroisoquinolin-2(1H)-yl)-2-hydroxypropyl)-3-morpholinopyrrolidine-1-carboxamide] | 12300 nM
10 | O=C(NCC(O)CN1CCc2ccccc2C1)N1CCC(C(=O)N2CCOCC2)CC1 (centres unmarked) [Example 1O, N-(3-(3,4-dihydroisoquinolin-2(1H)-yl)-2-hydroxypropyl)-4-(morpholine-4-carbonyl)piperidine-1-carboxamide] | 51 nM
11 | O=C(NCC(O)CN1CCc2ccccc2C1)N1CCC(Oc2ccccc2)CC1 (centres unmarked) [Example 1G, N-[2-hydroxy-3-(1,2,3,4-tetrahydroisoquinolin-2-yl)propyl]-4-phenoxypiperidine-1-carboxamide] | 568 nM
12 | O=C(NC[C@H](O)CN1CCc2ccccc2C1)N1CCC[C@H](C2CCOCC2)C1 (single isomer, unassigned) [Example 5G, (R)-N-((S)-3-(3,4-dihydroisoquinolin-2(1H)-yl)-2-hydroxypropyl)-3-(tetrahydro-2H-pyran-4-yl)piperidine-1-carboxamide compound or (S)-N-((S)-3-(3,4-dihydroisoquinolin-2(1H)-yl)-2-hydroxypropyl)-3-(tetrahydro-2H-pyran-4-yl)piperidine-1-carboxamide] | 394 nM
13 | O=C(NCC(O)CN1CCc2ccccc2C1)N1CCCCC(c2ccccc2)C1 (centres unmarked) [Example 1CO, N-(3-(3,4-dihydroisoquinolin-2(1H)-yl)-2-hydroxypropyl)-3-phenylazepane-1-carboxamide] | 17 nM
14 | O=C(NCC(O)CN1CCc2ccccc2C1)N1CCCC1 (centres unmarked) [Example 1M, N-[2-hydroxy-3-(1,2,3,4-tetrahydroisoquinolin-2-yl)propyl]pyrrolidine-1-carboxamide] | 6870 nM
15 | O=C(NCC(O)CN1CCc2sccc2C1)N1CCCc2ccccc21 (centres unmarked) [Example 1Y, N-(3-(6,7-dihydrothieno[3,2-c]pyridin-5(4H)-yl)-2-hydroxypropyl)-3,4-dihydroquinoline-1(2H)-carboxamide] | 236 nM
16 | O=C(NC[C@H](O)CN1CCc2ccccc2C1)N1CCS[C@@H](c2ccccc2)C1 (single isomer, unassigned) [Example 5D, (S)-N-((S)-3-(3,4-dihydroisoquinolin-2(1H)-yl)-2-hydroxypropyl)-2-phenylthiomorpholine-4-carboxamide or (R)-N-((S)-3-(3,4-dihydroisoquinolin-2(1H)-yl)-2-hydroxypropyl)-2-phenylthiomorpholine-4-carboxamide] | 101 nM
17 | COC(=O)N1CCCN(C(=O)NC[C@@H](O)CN2CCc3ccccc3C2)CC1 [Example 1BC, Methyl (R)-4-((3-(3,4-dihydroisoquinolin-2(1H)-yl)-2-hydroxypropyl)carbamoyl)-1,4-diazepane-1-carboxylate] | 33100 nM
18 | O=C(OCC(O)CN1CCc2ccccc2C1)N1CC(C(=O)N2C3CCC2COC3)C1 (centres unmarked) [Example 4U, 3-(3,4-dihydroisoquinolin-2(1H)-yl)-2-hydroxypropyl 3-(3-oxa-8-azabicyclo[3.2.1]octane-8-carbonyl)azetidine-1-carboxylate] | 2980 nM
19 | CC1(O)CCN(C(=O)NC[C@H](O)CN2CCc3ccccc3C2)CC1 [Example 1BG, (S)-N-(3-(3,4-dihydroisoquinolin-2(1H)-yl)-2-hydroxypropyl)-4-hydroxy-4-methylpiperidine-1-carboxamide] | 3940 nM
20 | O=C(OC[C@H](O)CN1CCc2ccccc2C1)N1CCC(C(=O)N2C3CCC2COC3)CC1 [Example 4Q, (R)-3-(3,4-dihydroisoquinolin-2(1H)-yl)-2-hydroxypropyl 4-(3-oxa-8-azabicyclo[3.2.1]octane-8-carbonyl)piperidine-1-carboxylate] | 160 nM
21 | CC(=O)N1CCCN(C(=O)NCC(O)CN2CCc3ccccc3C2)CC1 (centres unmarked) [Example 1CM, 4-acetyl-N-(3-(3,4-dihydroisoquinolin-2(1H)-yl)-2-hydroxypropyl)-1,4-diazepane-1-carboxamide] | 125 nM
22 | O=C(NC[C@H](O)CN1CCc2ccccc2C1)N1CCCc2ccccc21 [Example 1AJ, (S)-N-(3-(3,4-dihydroisoquinolin-2(1H)-yl)-2-hydroxypropyl)-3,4-dihydroquinoline-1(2H)-carboxamide] | 80 nM
23 | O=C(NC[C@H](O)CN1CCc2ccccc2C1)N1CCC[C@@H](c2ccccc2)C1 (single isomer, unassigned) [Example 5B, (S)-N-((S)-3-(3,4-dihydroisoquinolin-2(1H)-yl)-2-hydroxypropyl)-3-phenylpiperidine-1-carboxamide or (R)-N-((S)-3-(3,4-dihydroisoquinolin-2(1H)-yl)-2-hydroxypropyl)-3-phenylpiperidine-1-carboxamide] | 599 nM
24 | O=C(NCC(O)CN1CCc2ccccc2C1)N1CCC(c2ccccc2)CC1 (centres unmarked) [Example 1F, N-[2-hydroxy-3-(1,2,3,4-tetrahydroisoquinolin-2-yl)propyl]-4-phenylpiperidine-1-carboxamide] | 457 nM
25 | O=C(NCC(O)CN1CCc2ccccc2C1)N1CCN(c2ccccc2)CC1 (centres unmarked) [Example 1C, N-[2-hydroxy-3-(1,2,3,4-tetrahydroisoquinolin-2-yl)propyl]-4-phenylpiperazine-1-carboxamide] | 1240 nM
26 | O=C(NCC(O)CN1CCc2ccccc2C1)N1CCC(c2ccccc2)C1 (centres unmarked) [Example 1A, N-(3-(3,4-dihydroisoquinolin-2(1H)-yl)-2-hydroxypropyl)-3-phenylpyrrolidine-1-carboxamide] | 290 nM
27 | O=C(OCC(O)CN1CCc2ccccc2C1)N1CCCC1 (centres unmarked) [Example 3C, 2-hydroxy-3-(1,2,3,4-tetrahydroisoquinolin-2-yl)propyl pyrrolidine-1-carboxylate] | 9560 nM
28 | O=C(NC[C@H](O)CN1CCc2ccccc2C1)N1CCCC(C2CCSCC2)C1 (stereo partly drawn) [Example 1CA, N-((S)-3-(3,4-dihydroisoquinolin-2(1H)-yl)-2-hydroxypropyl)-3-(tetrahydro-2H-thiopyran-4-yl)piperidine-1-carboxamide] | 58 nM

Next, values leading:

Row | IC50 | SMILES
29 | 213000 nM | O=C(OCC(O)CN1CCc2ccccc2C1)N1CCS(=O)(=O)CC1 (centres unmarked) [Example 4N, 3-(3,4-dihydroisoquinolin-2(1H)-yl)-2-hydroxypropyl thiomorpholine-4-carboxylate 1,1-dioxide]
30 | 223 nM | O=C(OCC(O)CN1CCc2ccsc2C1)N1CCCC(c2ccccc2)C1 (centres unmarked) [Example 4AD, 3-(4,7-dihydrothieno[2,3-c]pyridin-6(5H)-yl)-2-hydroxypropyl 3-phenylpiperidine-1-carboxylate]
31 | 1700 nM | O=C(NCCCN1CCc2ccccc2C1)N1CCCC(c2ccccc2)C1 (centres unmarked) [Example 6B, N-(3-(3,4-dihydroisoquinolin-2(1H)-yl)propyl)-3-phenylpiperidine-1-carboxamide]
32 | 81 nM | O=C(OC[C@H](O)CN1CCc2ccccc2C1)N1CCC(c2ccccn2)C1 (stereo partly drawn) [Example 4R, (R)-3-(3,4-dihydroisoquinolin-2(1H)-yl)-2-hydroxypropyl 3-(pyridin-2-yl)pyrrolidine-1-carboxylate]
